≈ marks a conversion by molar mass, not a printed value.
What was measured:
[1] = system: Streptococcus pyogenes (Isolate ID ATCC 51339); test: Antibacterial activity, MIC, S. pyogenes; type: cell-based; conditions: Streptococcus pyogenes, ATCC51339, Gram positive strain; broth microdilution or agar dilution
Method: (§1) Bacterial Assay: Determination of Antibacterial Activity
(§2) Compounds of the invention were tested for antimicrobial activity by susceptibility testing in liquid or on solid media. MICs for compounds against each strain were determined by the broth microdilution or agar dilution method according to the guidelines of the Clinical Laboratories and Standards Institute, formerly the National Committee for Clinical Laboratory Standards (Clinical Laboratories and Standards Institute. Methods for Dilution Antimicrobial Susceptibility Tests for Bacteria That Grow Aerobically; Approved Standard—Seventh Edition. Document M7-A7. CLSI, Wayne, Pa., 2006; Clinical Laboratories and Standards Institute. The gram positive bacterial strains tested include S. aureus (Staphylococcus aureus (Isolate ID ATCC 29213)), E. faecalis (Enterococcus faecalis (Isolate ID ATCC 29212)) and S. pyogenes (Streptococcus pyogenes (Isolate ID ATCC 51339)). The gram negative bacterial strains tested include H. influenzae (Haemophilus influenzae (Isolate ID ATCC 49247))

[2] = system: Staphylococcus aureus (Isolate ID ATCC 29213); test: Antibacterial activity, MIC, S. aureus; type: cell-based; conditions: Staphylococcus aureus, ATCC29213, Gram positive strain; broth microdilution or agar dilution
Method: as §1, §2

[3] = physchem; conditions: for solubility at 24 h: kinetic from dmso stock
Method: Turbimetric Assay: Determination of Solubility
The solubility of the compounds was measured using a turbidimetric method. A series of doubling dilutions of compounds were prepared in neat dimethyl sulfoxide (DMSO). 5 μl samples were diluted twenty-fold into 95 μl volumes of 100 mM citrate buffer (pH 4), phosphate buffered saline (PBS, pH 7.4) or carbonate-bicarbonate buffer (pH 9) in microtitre assay plates and allowed to reach equilibrium at room temperature for 24 hours. The absorbance within each well of the plate was read spectrophotometrically at a wavelength of 620 nm. A precipitate forms when the maximum aqueous solubility level is reached. The value quoted is the highest concentration where the compound was in solution i.e. where no measurable precipitate was present. […] ND=not determined

[4] = system: Haemophilus influenzae (Isolate ID ATCC 49247); test: Antibacterial activity, MIC, H. influenzae; type: cell-based; conditions: Haemophilus influenzae, ATCC49247; Gram negative strain; broth microdilution or agar dilution
Method: as §1, §2

[5] = pH 7.4, aqueous buffer, Solubility (pH 7.4)
[6] = pH 7.4, aqueous buffer, Solubility Range
[7] = pH 9, aqueous buffer, Max Solubility
[8] = pH 9, aqueous buffer, Solubility Range (maximum solubility)
[9] = pH 7.4, aqueous buffer, Max Solubility
[10] = pH 7.4, aqueous buffer, Solubility Range (maximum solubility)

Structure (SMILES) | MIC [1] [µg/mL] | MIC [2] [µg/mL] | solubility at 24 h [3, 5] [µg/mL] | solubility at 24 h [3, 6] [µg/mL] | solubility at 24 h [3, 7] [µg/mL] | solubility at 24 h [3, 8] [µg/mL] | MIC [4] [µg/mL] | solubility at 24 h [3, 9] [µg/mL] | solubility at 24 h [3, 10] [µg/mL] | Solubility (pH 7.4) ([3]; 24 h, pH 7.4) | solubility at 24 h ([3]; pH 4, aqueous buffer, Max Solubility) [µg/mL] | solubility at 24 h ([3]; pH 4, aqueous buffer, Solubility Range (maximum solubility)) [µg/mL]
CCNC(=O)Nc1nc2cc(-c3cnc(N4CCC(CC)(C(=O)O)CC4)nc3)cc(COC)c2s1 [Compound 203, 4-Ethyl-1-[5-[2-(ethylcarbamoylamino)-7-(methoxymethyl)-1,3-benzothiazol-5-yl]pyrimidin-2-yl]piperidine-4-carboxylic acid] | 1 to 16 (≈ 2.01 to 32.1 µM) | 1 to 16 (≈ 2.01 to 32.1 µM) | 100 (≈ 201 µM) | 12.5 to 400 (≈ 25.1 to 802 µM) | ≥ 800 | > 800 | 1 to 16 (≈ 2.01 to 32.1 µM) | – | – | – | – | –
CCNC(=O)Nc1nc2cc(-c3cnc(N4CCC(C)(C(=O)O)CC4)nc3)cc(/C=N/OCC)c2s1 [Compound 204] | 0.25 to 1 (≈ 0.489 to 1.95 µM) | 0.25 to 1 (≈ 0.489 to 1.95 µM) | ≥ 800 | > 800 | – | – | 1 to 16 (≈ 1.95 to 31.3 µM) | ≥ 800 | > 800 | – | – | –
CCNC(=O)Nc1nc2cc(-c3cnc(N4CCC(C)(C(=O)O)CC4)nc3)cc(-c3ccc(CN4CCOCC4)cn3)c2s1 [Compound 205] | 0.25 to 1 (≈ 0.405 to 1.62 µM) | 0.25 to 1 (≈ 0.405 to 1.62 µM) | 400 (≈ 649 µM) | 400 to 800 (≈ 649 to 1300 µM) | ≥ 800 | > 800 | 1 to 16 (≈ 1.62 to 25.9 µM) | – | – | – | – | –
CCNC(=O)Nc1nc2cc(-c3cnc(N4CCC(CC)(C(=O)O)C4)nc3)cc(-c3ccccn3)c2s1 (stereo not shown) [Compound 206] | ≤ 0.25 | 0.25 to 1 (≈ 0.483 to 1.93 µM) | ≥ 800 | > 800 | – | – | 1 to 16 (≈ 1.93 to 30.9 µM) | ≥ 800 | > 800 | – | – | –
CCNC(=O)Nc1nc2cc(-c3cnc(N4CCC(CC)(C(=O)O)CC4)nc3)cc(C(=O)CC)c2s1 [Compound 207, 4-Ethyl-1-(5-(2-(3-ethylureido)-7-propionylbenzo[d]thiazol-5-yl)pyrimidin-2-yl)piperidine-4-carboxylic acid] | 0.25 to 1 (≈ 0.49 to 1.96 µM) | 0.25 to 1 (≈ 0.49 to 1.96 µM) | 100 (≈ 196 µM) | 12.5 to 400 (≈ 24.5 to 783 µM) | 400 (≈ 783 µM) | 400 to 800 (≈ 783 to 1570 µM) | 1 to 16 (≈ 1.96 to 31.3 µM) | – | – | – | – | –
CCNC(=O)Nc1nc2cc(-c3cnc(N4CCC(C)(C(=O)O)CC4)nc3)c(OC)c(Br)c2s1 [Compound 208, 1-[5-[7-bromo-2-(ethylcarbamoylamino)-6-methoxy-1,3-benzothiazol-5-yl]pyrimidin-2-yl]-4-methyl-piperidine-4-carboxylic acid] | 1 to 16 (≈ 1.82 to 29.1 µM) | 0.25 to 1 (≈ 0.455 to 1.82 µM) | 100 (≈ 182 µM) | 12.5 to 400 (≈ 22.7 to 728 µM) | 200 (≈ 364 µM) | 12.5 to 400 (≈ 22.7 to 728 µM) | 1 to 16 (≈ 1.82 to 29.1 µM) | – | – | – | – | –
CCNC(=O)Nc1nc2cc(-c3csc(N4CCC(CC)(C(=O)O)CC4)n3)cc(-c3ccccn3)c2s1 [Compound 209, 4-Ethyl-1-[4-[2-(ethylcarbamoylamino)-7-(2-pyridyl)-1,3-benzothiazol-5-yl]thiazol-2-yl]piperidine-4-carboxylic acid] | 0.25 to 1 (≈ 0.466 to 1.86 µM) | 0.25 to 1 (≈ 0.466 to 1.86 µM) | 200 (≈ 373 µM) | 12.5 to 400 (≈ 23.3 to 745 µM) | 400 (≈ 745 µM) | 400 to 800 (≈ 745 to 1490 µM) | 1 to 16 (≈ 1.86 to 29.8 µM) | – | – | – | – | –
CCNC(=O)Nc1nc2cc(-c3cnc(N4CCC(CC)(C(=O)O)CC4)nc3)nc(-c3ccccn3)c2s1 [Compound 210] | ≤ 0.25 | 0.25 to 1 (≈ 0.469 to 1.88 µM) | 200 (≈ 375 µM) | 12.5 to 400 (≈ 23.5 to 751 µM) | – | – | 1 to 16 (≈ 1.88 to 30 µM) | 200 (≈ 375 µM) | 12.5 to 400 (≈ 23.5 to 751 µM) | – | – | –
CCNC(=O)Nc1nc2cc(-c3cnc(N4CCC(CC)(C(=O)O)CC4)nc3)cc(/C(CC)=N\OC)c2s1 [Compound 211, (Z)-4-Ethyl-1-(5-(2-(3-ethylureido)-7-(1-(methoxyimino)propyl)benzo[d]thiazol-5-yl)pyrimidin-2-yl)piperidine-4-carboxylic acid] | 0.25 to 1 (≈ 0.463 to 1.85 µM) | 0.25 to 1 (≈ 0.463 to 1.85 µM) | – | – | – | – | 1 to 16 (≈ 1.85 to 29.6 µM) | ≥ 800 | > 800 | ≧800 μg/mL | – | –
CCNC(=O)Nc1nc2cc(-c3cnc(N4CCC(C)(C(=O)O)CC4)nc3)cc(-c3noc(C)n3)c2s1 [Compound 213, 1-[5-[2-(Ethylcarbamoylamino)-7-(5-methyl-1,2,4-oxadiazol-3-yl)-1,3-benzothiazol-5-yl]pyrimidin-2-yl]-4-methyl-piperidine-4-carboxylic acid] | 0.25 to 1 (≈ 0.478 to 1.91 µM) | 0.25 to 1 (≈ 0.478 to 1.91 µM) | 400 (≈ 765 µM) | 400 to 800 (≈ 765 to 1530 µM) | ≥ 800 | > 800 | 0.25 to 1 (≈ 0.478 to 1.91 µM) | – | – | – | – | –
CCNC(=O)Nc1nc2cc(-c3cnc(N4CCC(C)(C(=O)O)CC4)nc3C)cc(-c3ccccn3)c2s1 [Compound 214] | 0.25 to 1 (≈ 0.47 to 1.88 µM) | 0.25 to 1 (≈ 0.47 to 1.88 µM) | 400 (≈ 752 µM) | 400 to 800 (≈ 752 to 1500 µM) | ≥ 800 | > 800 | 1 to 16 (≈ 1.88 to 30.1 µM) | – | – | – | – | –
CCNC(=O)Nc1nc2cc(-c3cnc(N4CCC(C)(C(=O)O)CC4)nc3)cc(Br)c2s1 [Compound 215] | 0.25 to 1 (≈ 0.481 to 1.93 µM) | ≤ 0.25 | 400 (≈ 770 µM) | 400 to 800 (≈ 770 to 1540 µM) | ≥ 800 | > 800 | 1 to 16 (≈ 1.93 to 30.8 µM) | – | – | – | – | –
CCNC(=O)Nc1nc2cc(-c3cnc(NC4COC(C)(C(=O)OCC)OC4)nc3)cc(-c3ccccn3)c2s1 (stereo not shown) [Compound 216] | 1 to 16 (≈ 1.77 to 28.4 µM) | ≤ 0.25 | 25 (≈ 44.4 µM) | 12.5 to 400 (≈ 22.2 to 710 µM) | – | – | 1 to 16 (≈ 1.77 to 28.4 µM) | – | – | – | 50 (≈ 88.7 µM) | 12.5 to 400 (≈ 22.2 to 710 µM)
CCNC(=O)Nc1nc2cc(-c3cnc(N4CCC(C)(C(=O)O)CC4)nc3)cc(-c3ccc(CN4CCC(F)(F)CC4)cn3)c2s1 [Compound 217] | 0.25 to 1 (≈ 0.384 to 1.54 µM) | ≤ 0.25 | 400 (≈ 615 µM) | 400 to 800 (≈ 615 to 1230 µM) | ≥ 800 | > 800 | 1 to 16 (≈ 1.54 to 24.6 µM) | – | – | – | – | –
CCNC(=O)Nc1nc2cc(-c3cnc(N(C)C4CCC(C)(C(=O)O)CC4)nc3)cc(-c3ccccn3)c2s1 (stereo not shown) [Compound 218] | ≤ 0.25 | ≤ 0.25 | 200 (≈ 367 µM) | 12.5 to 400 (≈ 22.9 to 733 µM) | ≥ 800 | > 800 | 1 to 16 (≈ 1.83 to 29.3 µM) | – | – | – | – | –
CCNC(=O)Nc1nc2cc(-c3cnc(N4CCC5(CC4)CC(CC)(C(=O)O)C5)nc3)cc(-c3ccccn3)c2s1 [Compound 219] | 0.25 to 1 (≈ 0.437 to 1.75 µM) | ≤ 0.25 | ≥ 800 | > 800 | – | – | 1 to 16 (≈ 1.75 to 28 µM) | ≥ 800 | > 800 | – | – | –
CCNC(=O)Nc1nc2cc(-c3cnc(N4CCC(C)(C(=O)O)CC4)nc3OC)cc(-c3ccccn3)c2s1 [Compound 220] | ≤ 0.25 | ≤ 0.25 | 50 (≈ 91.3 µM) | 12.5 to 400 (≈ 22.8 to 730 µM) | 400 (≈ 730 µM) | 400 to 800 (≈ 730 to 1460 µM) | 1 to 16 (≈ 1.83 to 29.2 µM) | – | – | – | – | –

Reference: US9181234B2, “Antibacterial compounds” (priority 2010, dated 2015)
